Assay results published in publication PMC9227351, “A Novel Antihypertensive Pentapeptide Identified in Quinoa Bran Globulin Hydrolysates: Purification, In Silico Characterization, Molecular Docking with ACE and Stability against Different Food-Processing Conditions” (Nutrients, 2022).
Entries after “also recorded” stand apart in the source; their conditions may differ. Ends that are not written are not given here.

Key:
[1] = proline-rich literature peptides; cited from earlier work
Text: The main reason was the structural characteri ...

ACE [2] = conditions: literature peptides; ref 13 (GYGYNY), 20 (SSYYPFK), 34 (NMAINPSKENLCSTFCK); read-out: IC50 of ACE-inhibitory activity; cited from earlier work
Text: Obviously, SAPPP was a pentapeptide of high content of Pro. […] Some special acid residues including aromatic amino acids (Phe, Trp and Tyr) and Pro in the C-terminal tripeptides can tightly bind with active sites of ACE and show ... || Peptides can bind to the key binding pockets of ACE (S1, S1′, and S2′), and disturb the combination of ACE and the […] (angiotensin-I or bradykinin), thereby showing a competitive inhibition pattern. […] Moreover, the docking T-Score of SAPPP (8.88) was higher than the required value (6.0).

ACE [3] = experiment: Stability against simulated gastrointestinal digestion, read out as ACE-inhibitory activity; assay type: in vitro ADME; conditions: peptide 1 mg/mL; pepsin pH 2.0 37 °C 90 min, then trypsin/bile salt pH 6.8 37 °C 180 min; activity before versus after digestion; p > 0.05
Description: As per the same procedure described by Jimsheena and Gowda, inhibition activity on ACE was evaluated by comparing the quantity of produced hippuric acid before and after the addition of the peptides. IC50 value was calculated from the regression equation of ACE inhibition percentage versus different concentrations of the sample, and defined as the concentration of sample when ACE-inhibitory activity was 50%.
Following the method of Sun et al., mixtures of trypsin (0.45 g), pig bile salt (3 g) and NaHCO3 (6.25 g) dissolved in 100 mL of dH2O (pH 6.8) were used to simulate intestinal fluid, whereas pepsin (40 mg) and NaCl (0.877 g) dissolved in 100 mL of dH2O (pH 2.0) were used as gastric fluid. Peptide solutions (dissolved in ultrapure water, 1 mg/mL) were incubated at 37 °C in a stirring bath (140 r/min) for 15 min; then, the simulated gastric fluid was added (gastric fluid: peptide solution = 1:10 v/v) and incubated at 37 °C (140 r/min) for 90 min. Then, the reaction solution was adjusted to pH 6.8 with Na2HPO4. The simulated intestinal fluid (the fluid: peptide solution = 1:10, v/v) was added and stirred (140 r/min) at 37 °C for 180 min. All the reaction solutions were heated at 100 °C for 8 min to inactivate the enzyme. Stability was calculated by comparing the ACE-inhibitory activities of the peptides before and after the digestion.

Row | Substance | Stability against gastrointestinal digestion [1] | IC50 (ACE [2]) | Stability of ACE-inhibitory activity during simulated gastrointestinal digestion (ACE [3])
1 | ELHPQ [proline-rich peptide identified in canary seed] | excellent stability | – | –
2 | GYGYNY | – | 384 µM | –
3 | KPVPR [proline-rich peptide identified in canary seed] | excellent stability | – | –
4 | LHPQ [proline-rich peptide identified in canary seed] | excellent stability | – | –
5 | NMAINPSKENLCSTFCK | – | 129 µM | –
6 | SAPPP [SAPPP, Ser-Ala-Pro-Pro-Pro] | – | – | resistant; also recorded: relatively stable
7 | SSYYPFK | excellent stability | 91.8 µM | –
